Data published in patent US20120136583A1, “METHOD FOR PREDICTING EFFICACY OF DRUGS IN A PATIENT” (WORLDWIDE INNOVATIVE NETWORK, priority 2009, published 2012).

Key:
[1] = system: non-small cell lung carcinoma (NSCLC), cT4, N0, M1; assay: Clinical course under treatment, patient of Example 1; format: in vivo, human; conditions: Example 1 patient
[2] = system: primary bronchial adenocarcinoma with bilateral pulmonary metastases and asymptomatic cerebral metastases; assay: Clinical course under treatment, patient of Example 3; format: in vivo, human; conditions: Example 3 patient
From the text: A patient was diagnosized in May 2007 for a primary bronchial adenocarcinoma with bilateral pulmonary metastases and asymptomatic cerebral metastases. A surgical treatment has been carried out in November 2008 and two therapeutic lines have been used, namely thirteen cycles of cisplatin-gemcitabin for the first line and Alimta for the second one.
However, based on this score table, avastin associated with a score of 384 has been selected.

[3] = system: bronchial adenocarcinoma T4 with bones and pleural metastases; conditions: Example 2 patient

Compound	Clinical response / disease status under treatment [2]	Clinical response / disease status under treatment [3]	further results
CCOc1cc2ncc(C#N)c(Nc3ccc(OCc4ccccn4)c(Cl)c3)c2cc1NC(=O)/C=C/CN(C)C [HKI 272]	–	–	Clinical response / disease status under treatment [1]: efficient; Time on treatment until disease progression [1]: 37 months
Nc1nc2[nH]cc(CCc3ccc(C(=O)N[C@@H](CCC(=O)O)C(=O)O)cc3)c2c(=O)[nH]1 [PEMETREXED]	disease progression	–	–
C#Cc1cccc(Nc2ncnc3cc(OCCOC)c(OCCOC)cc23)c1 [Tarceva]	–	inefficient and led to a rapid progression	–
CCC1=C[C@@H]2CN(C1)Cc1c([nH]c3ccccc13)[C@@](C(=O)OC)(c1cc3c(cc1OC)N(C)[C@H]1[C@@](O)(C(=O)OC)[C@H](OC(C)=O)[C@]4(CC)C=CCN5CC[C@]31[C@@H]54)C2 [VINORELBINE]	–	Three months later, the disease was stable, then progressed	–
BEVACIZUMAB: drug whose major target gene is VEGFA	major response	–	–
